Data published in patent US10406217B2, “Antifugetactic agents for the treatment of cancers” (The General Hospital Corporation, priority 2004, dated 2019).

System: Protein Kinase C
Assay: Microfluidic migration assay of neutrophils in linear IL-8 gradients (mean chemotropism index)
Assay type: cell-based, Human
Details: 25 μM pretreatment; IL-8 gradient in which fugetaxis is predominant (600 nM to 1.2 μM); p=0.0001
Excerpt: Human whole blood was obtained from healthy volunteers by venipuncture into tubes-containing sodium heparin (Becton Dickinson, San Jose, Calif.). Neutrophils were isolated by density gradient centrifugation and purified by hypotonic lysis, as previously described (Tager, A. M., et al. 1998. Am J Respir Cell Mol Biol 19:643-52).
The microfluidic linear gradient generators were fabricated in poly(dimethylsiloxane) (PMDS; Sylgard 184, Dow Corning, N.Y.), and gradient generation was verified with fluorescin isothiocyanate (FITC; Sigma-Aldrich), as previously described (Li Jeon, N., et al. 2002. Nat Biotechnol 20:826-30; Whitesides, G. M., et al. 2001. Annu Rev Biomed Eng 3:335-73), […]
Cell movement was tracked using MetaMorph 4.5 (Universal Imaging, Dowington, Pa.) object tracking application, which generated tables of Cartesian coordinate data for each cell. Tracking data was analyzed in Excel (Microsoft, USA) and MATLAB 13 (The Mathworks, Inc., Newton, Mass.) to determine angular frequencies, mean squared displacements, migration velocities, persistence times, random motility coefficients, and random walk path lengths. […] For each cell, the squared displacement R(t) was calculated at time interval t, R^2(t)=(x(t0+t)−x(t0))^2+(y(t0+t)−y(t0))^2, (1) where t0 is the time at the origin. […]

CN(C)CCCn1cc(C2=C(c3c[nH]c4ccccc34)C(=O)NC2=O)c2ccccc21 [GF 109230X]
effect on neutrophil fugetaxis in IL-8 gradient: selectively inhibited fugetaxis and converted a fugetactic response into a predominantly chemoattraction response
